From PMC9948168, “Vanillin-Based Indolin-2-one Derivative Bearing a Pyridyl Moiety as a Promising Anti-Breast Cancer Agent via Anti-Estrogenic Activity” (ACS Omega, 2023)
Read-outs that look alike come from different tables or passages of the source.

Legend:
Type in all cases: cell-based, human
[1] = iCELLigence real-time cell analysis; conditions: human, MCF-12A, relative to control, read-out: cell viability (% ± SEM)
Description: (§1) Therefore, compound 6j was applied in serial doses (2, 5, 10, 20, 50, and 100 μM) to MCF-7 cells and parallel to MCF-12A cells to determine the selectivity and safety. The treatments were performed 24 h after seeding the cells on system-specific biosensor-based plates. A total of 120 h of analyses were monitored, with cell viability measurements taken every 15 min. […] In addition, the viability percentage values for each dose in these periods were calculated and are summarized in Table 3 for MCF-7 and Table 4 for MCF-12A. […] In these treatments, cells were not killed dramatically after adding the highest two doses of 6j (100 and 50 μM); instead, they entered the stationary phase.
(§2) MCF-7 (Cat. no. HTB-22) (human estrogen receptor-positive breast cancer) and MCF-12A (Cat. no. CRL-10782) (human non-tumorigenic mammary epithelial) cell lines were obtained from the American Type Culture Collection (ATCC, Rockville, Maryland, USA). MCF-7 cells were maintained in Dulbecco’s modified Eagle’s medium (DMEM) (Biological Industries, Haemek, Israel) supplemented with 10% heat-inactivated fetal bovine serum (FBS) (Biowest, Nuaillé, France), 2 mM L-glutamine (Biological Industries, Haemek, Israel), 100 U/mL penicillin and 100 μg/mL streptomycin (Gibco, Waltham, MA, USA), and 2.5 μg/mL plasmocin (Invivogen, Toulouse, France) at 37 °C in a 5% CO2 humidified incubator. MCF-12A cells were cultured in a DMEM/F-12 Nutrient Mixture (Ham) (DMEM/F12 1:1 with HEPES and L-glutamine) (Gibco, Waltham, MA, USA) with 10% heat-inactivated FBS, 100 U/mL penicillin, 100 μg/mL streptomycin, and 10 μg/mL insulin (Humulin R, Lilly, Indianapolis, USA), 20 ng/mL epidermal growth factor (Abcam, Cambridge, UK), […] hydrocortisone (Dekort, Deva Ilac, Istanbul, Turkey), and 2.5 μg/mL plasmocin in a humidified atmosphere of 5% CO2 at 37 °C. The cells were routinely cultured in cell culture flasks and checked regularly under an inverted microscope. Cells reaching 80% confluency were passaged by treatment with 0.25% trypsin–EDTA. Total cell numbers were counted by the trypan blue dye exclusion method using a hemocytometer prior to the experiments.
(§3) The iCELLigence real-time cell analysis system was used to conduct a real-time and label-free examination of the activities of compound 6j on cells as we previously described.[62] In brief, following a background measurement with 200 μL of complete medium on iCELLigence E-plate L8, 100 μL of MCF-7 or MCF-12A cells was seeded at a density of 5.0 × 10^3 per well. During the 120 h monitoring, the system took impedance measurements via biosensors every 15 min. At the 24th h of incubation, the cells were treated with increasing concentrations of the 6j compound (2, 5, 10, 20, 50, and 100 μM) in duplicate. For cell culture experiments, compound 6j was dissolved in DMSO (Sigma, St. Louis, USA) at a stock concentration of 20 mM. For treatments, dilutions were prepared from 20 mM stock with a cell growth medium, with a final DMSO concentration of 0.1%. The medium containing 0.1% DMSO was also used as a negative control. […] Data were recorded by the iCELLigence software for 120 h and analyzed at the end of the study.

[2] = system: MCF-12A cells; experiment: iCELLigence real-time cell analysis; conditions: for IC50: Homo sapiens, MCF-12A
Description: as §1, §2, §3

[3] = system: MCF-7 cells; experiment: iCELLigence real-time cell analysis; conditions: for viability at 2 µM / viability at 5 µM / viability at 10 µM / viability at 20 µM / viability at 50 µM / viability at 100 µM / IC50: MCF-7; for viability at 2 µM / viability at 5 µM / viability at 10 µM / viability at 20 µM / viability at 50 µM / viability at 100 µM: relative to control, read-out: cell viability (% ± SEM)
Description: as §1, §2, §3

[4] = system: MCF-12A cells; experiment: Morphological assessment under inverted microscope; conditions: 50 and 100 μM; 48 h after treatment
Description: (§4) In addition to the viability analyses, morphological evaluations were performed after treating the cells with different doses of 6j (5, 10, 20, 50, and 100 μM) to better understand what was going on in the plate wells. The cells were photographed under an inverted microscope 48 h after 6j treatment. […] The cell morphology has not deteriorated, and the membrane structures were preserved in a healthy way in the 6j-applied cells.
(§5) Morphological studies were performed to observe the effects of 6j on MCF-7 and MCF-12A cells, as previously reported.[63] In brief, 5 × 10^5 cells were seeded into six-well plates and incubated for 24 h. Afterward, increasing doses of compound 6j (5, 10, 20, 50, and 100 μM) were applied to the cells. The medium containing 0.1% DMSO was used as the untreated control. 48 h after treatments, the cells were photographed under an inverted microscope, Leica DM IL LED with a DFC-290 camera (Leica, Wetzlar, Germany).

[5] = system: MCF-7 cells; experiment: Morphological assessment under inverted microscope; conditions: 50 and 100 μM; 48 h after treatment
Description: as §4, §5

COc1cc(C=C2C(=O)Nc3ccc(Cl)cc32)ccc1OCc1ccccn1 (mixture of isomers) [6j]
viability at 48 h, 2 µM ([1]; MCF-12A cells (non-tumorigenic mammary epithelial), 2 μM, 48 h): 97.43 ± 0.02%
viability at 72 h, 2 µM ([1]; MCF-12A cells (non-tumorigenic mammary epithelial), 2 μM, 72 h): 97.43 ± 0.02%
viability at 96 h, 2 µM ([1]; MCF-12A cells (non-tumorigenic mammary epithelial), 2 μM, 96 h): 97.43 ± 0.02%
viability at 72 h, 5 µM ([1]; MCF-12A cells (non-tumorigenic mammary epithelial), 5 μM, 72 h): 92.74 ± 0.01%
viability at 96 h, 5 µM ([1]; MCF-12A cells (non-tumorigenic mammary epithelial), 5 μM, 96 h): 92.2%
viability at 72 h, 10 µM ([1]; MCF-12A cells (non-tumorigenic mammary epithelial), 10 μM, 72 h): 87.93 ± 0.02%
viability at 96 h, 10 µM ([1]; MCF-12A cells (non-tumorigenic mammary epithelial), 10 μM, 96 h): 87.93 ± 0.02%
viability at 72 h, 20 µM ([1]; MCF-12A cells (non-tumorigenic mammary epithelial), 20 μM, 72 h): 80.57 ± 0.01%
viability at 96 h, 20 µM ([1]; MCF-12A cells (non-tumorigenic mammary epithelial), 20 μM, 96 h): 80.57 ± 0.01%
viability at 72 h, 50 µM ([1]; MCF-12A cells (non-tumorigenic mammary epithelial), 50 μM, 72 h): 72.7 ± 0.01%
viability at 96 h, 50 µM ([1]; MCF-12A cells (non-tumorigenic mammary epithelial), 50 μM, 96 h): 72.54 ± 0.01%
viability at 72 h, 100 µM ([1]; MCF-12A cells (non-tumorigenic mammary epithelial), 100 μM, 72 h): 62.63 ± 0.01%
viability at 96 h, 100 µM ([1]; MCF-12A cells (non-tumorigenic mammary epithelial), 100 μM, 96 h): 61.3%
viability at 24 h, 2 µM ([1]; MCF-12A cells, 2 μM, 24 h): 98.7%
viability at 24 h, 5 µM ([1]; MCF-12A cells, 5 μM, 24 h): 99.06 ± 0.01%
viability at 48 h, 5 µM ([1]; MCF-12A cells, 5 μM, 48 h): 93.73 ± 0.02%
viability at 24 h, 10 µM ([1]; MCF-12A cells, 10 μM, 24 h): 97.22 ± 0.01%
viability at 48 h, 10 µM ([1]; MCF-12A cells, 10 μM, 48 h): 88.48 ± 0.02%
viability at 24 h, 20 µM ([1]; MCF-12A cells, 20 μM, 24 h): 93.6%
viability at 48 h, 20 µM ([1]; MCF-12A cells, 20 μM, 48 h): 81.96 ± 0.01%
viability at 24 h, 50 µM ([1]; MCF-12A cells, 50 μM, 24 h): 90.25 ± 0.01%
viability at 48 h, 50 µM ([1]; MCF-12A cells, 50 μM, 48 h): 77.81 ± 0.01%
viability at 24 h, 100 µM ([1]; MCF-12A cells, 100 μM, 24 h): 82%
viability at 48 h, 100 µM ([1]; MCF-12A cells, 100 μM, 48 h): 67.3%
IC50 ([2]; 24 h after treatment): 506 µM
IC50 ([2]; 48 h after treatment): 81.9 µM
IC50 ([2]; 72 h after treatment): 312 µM
IC50 ([2]; 96 h after treatment): 207 µM
safer profile MCF-12A versus MCF-7 ([2]; at the 48th h, based on IC50 values): 5 times
effects on MCF-12A healthy breast cells ([2]; first 24 h of treatment, any dose (2-100 μM)): no effects
inhibition of MCF-7 viability ([3]; 20 μM, compared with same concentration of tamoxifen): 30%
growth of MCF-7 cells ([3]; 100 and 50 μM, all time points): completely inhibited the growth
inhibition at 10 µM ([3]; Homo sapiens, MCF7, 10 μM, from growth curves): 25%
inhibition at 20 µM ([3]; Homo sapiens, MCF7, 20 μM, all time points, from growth curves): ~50%
viability at 2 µM ([3]; Homo sapiens, MCF7, 24 h): 91.38 ± 0.01%
viability at 2 µM ([3]; Homo sapiens, MCF7, 48 h): 91.38 ± 0.01%
viability at 2 µM ([3]; Homo sapiens, MCF7, 72 h): 91.38 ± 0.01%
viability at 2 µM ([3]; Homo sapiens, MCF7, 96 h): 90.67 ± 0.01%
viability at 5 µM ([3]; Homo sapiens, MCF7, 24 h): 84.83 ± 0.01%
viability at 5 µM ([3]; Homo sapiens, MCF7, 48 h): 83.01 ± 0.02%
viability at 5 µM ([3]; Homo sapiens, MCF7, 72 h): 83.01 ± 0.02%
viability at 5 µM ([3]; Homo sapiens, MCF7, 96 h): 82.54 ± 0.01%
viability at 10 µM ([3]; Homo sapiens, MCF7, 10 μM, 24 h): 80 ± 0.01%
viability at 10 µM ([3]; Homo sapiens, MCF7, 10 μM, 48 h): 76.59 ± 0.01%
viability at 10 µM ([3]; Homo sapiens, MCF7, 10 μM, 72 h): 76.59 ± 0.01%
viability at 10 µM ([3]; Homo sapiens, MCF7, 10 μM, 96 h): 74.2%
viability at 20 µM ([3]; Homo sapiens, MCF7, 20 μM, 24 h): 70.25 ± 0.02%
viability at 20 µM ([3]; Homo sapiens, MCF7, 20 μM, 48 h): 64.29 ± 0.02%
viability at 20 µM ([3]; Homo sapiens, MCF7, 20 μM, 72 h): 51.2 ± 0.01%
viability at 20 µM ([3]; Homo sapiens, MCF7, 20 μM, 96 h): 40.5%
viability at 50 µM ([3]; Homo sapiens, MCF7, 24 h): 62.7%
viability at 50 µM ([3]; Homo sapiens, MCF7, 48 h): 43.4%
viability at 50 µM ([3]; Homo sapiens, MCF7, 72 h): 28%
viability at 50 µM ([3]; Homo sapiens, MCF7, 96 h): 18.4%
viability at 100 µM ([3]; Homo sapiens, MCF7, 24 h): 57.46 ± 0.02%
viability at 100 µM ([3]; Homo sapiens, MCF7, 48 h): 33.25 ± 0.02%
viability at 100 µM ([3]; Homo sapiens, MCF7, 72 h): 20.25 ± 0.01%
viability at 100 µM ([3]; Homo sapiens, MCF7, 96 h): 13.4%
IC50 ([3]; Homo sapiens, MCF7, 24 h after treatment): 121 µM
IC50 ([3]; Homo sapiens, MCF7, 48 h after treatment): 16.2 µM
IC50 ([3]; Homo sapiens, MCF7, 72 h after treatment): 17 µM
IC50 ([3]; Homo sapiens, MCF7, 96 h after treatment): 16.1 µM
MCF-12A cell morphology / proliferation [4]: continued to proliferate
MCF-7 cell morphology / proliferation [5]: remained stable by stopping cell division without being toxic
